In experiment [1] the target is T1, E3 ubiquitin-protein ligase Mdm2 (Homo sapiens, UniProt Q00987). As to the kind of experiment: Binding affinity to MDM2 (25 to 109 amino acids) (unknown origin) at 100 uM after 30 mins by surface plasmon resosnance analysis. (SPR reads the build-up and loss of mass on a sensor chip optically.)
Target sequence in this assay (Q00987 whole entry, looked up, the tested form may be a part): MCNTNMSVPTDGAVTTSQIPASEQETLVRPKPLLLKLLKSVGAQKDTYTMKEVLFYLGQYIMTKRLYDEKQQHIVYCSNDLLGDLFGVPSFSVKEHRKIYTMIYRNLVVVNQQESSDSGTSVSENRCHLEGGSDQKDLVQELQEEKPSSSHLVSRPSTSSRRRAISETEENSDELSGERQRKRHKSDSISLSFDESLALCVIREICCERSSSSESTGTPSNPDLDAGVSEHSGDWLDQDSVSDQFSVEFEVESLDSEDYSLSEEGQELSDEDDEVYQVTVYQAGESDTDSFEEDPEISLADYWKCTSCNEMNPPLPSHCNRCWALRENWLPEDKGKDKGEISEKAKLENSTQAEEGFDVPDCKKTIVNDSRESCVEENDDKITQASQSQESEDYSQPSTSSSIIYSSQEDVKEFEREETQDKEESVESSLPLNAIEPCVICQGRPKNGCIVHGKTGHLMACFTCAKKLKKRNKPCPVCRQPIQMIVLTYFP
Experiment [2] deals with T1, E3 ubiquitin-protein ligase Mdm2. In words: Binding affinity to MDM2 (25 to 109 amino acids) (unknown origin) after 30 mins by surface plasmon resosnance analysis.
Target sequence in this assay (Q00987 whole entry, the tested form may be a part): as the sequence (Q00987 whole entry, looked up, the tested form may be a part) above

Each structure is given as a SMILES string. Calls of active or inactive are those of the source. The calls are words filed in the database; no cut-off is given here.

In the case of `CC(C)C[C@@H]1NC(=O)[C@@H]2CSSC[C@@H](C(=O)O)NC(=O)[C@H](CC(N)=O)NC(=O)[C@H](CSSC[C@H](NC(=O)[C@H](CC(C)C)NC(=O)[C@H](CCC(N)=O)NC(=O)[C@@H](N)Cc3cnc[nH]3)C(=O)N[C@@H](CCCNC(=N)N)C(=O)N[C@@H](Cc3c[nH]c4ccccc34)C(=O)N[C@@H](Cc3ccc(O)cc3)C(=O)N2)NC(=O)[C@H](CCCCN)NC(=O)[C@H](C)NC(=O)[C@@H]2CCCN2C(=O)[C@H](CCC(=O)O)NC(=O)[C@H]([C@@H](C)O)NC(=O)[C@H](Cc2ccccc2)NC1=O`, the result in experiment [1] was inactive.

What is called Kd is the equilibrium constant for the complex coming apart. Higher therefore signals weaker binding. In turn, `CC(C)C[C@@H](NC(=O)[C@@H](CCC(N)=O)NC(=O)[C@H](N)Cc1cnc[nH]1)C(=O)N[C@@H]1CSSC[C@H]2NC(=O)[C@@H](CCCCN)NC(=O)[C@@H](C)NC(=O)[C@H]3CCCN3C(=O)[C@@H](CCC(=O)O)NC(=O)[C@@H]([C@H](C)O)NC(=O)[C@@H](Cc3ccccc3)NC(=O)[C@@H](CC(C)C)NC(=O)[C@@H](CSSC[C@H](C(=O)O)NC(=O)[C@@H](CC(N)=O)NC2=O)NC(=O)[C@@H](Cc2ccc(O)cc2)NC(=O)[C@@H](Cc2c[nH]c3ccccc23)NC(=O)[C@@H](CCCNC(=N)N)NC1=O` returned a Kd in experiment [2] of 18.1 µM.
